Earlier results in patent publication US9622981B2, “Liquid-filled hard gel capsule pharmaceutical formulations” (Mylan Inc., priority 2011, dated 2017).

Experiments:
[1] = not given; remark: listed apart in the source
[2] = ordinary conditions

partition coefficient, Log P: 5.609±0.618 | solubility in water [1]: insoluble | stability [2]: stable under ordinary conditions
SMILES: C[C@]12C=CC(=O)N[C@@H]1CC[C@@H]1[C@@H]2CC[C@]2(C)[C@@H](C(=O)Nc3cc(C(F)(F)F)ccc3C(F)(F)F)CC[C@@H]12 [Dutasteride, (5α,17β)-N-[2,5 bis(trifluoromethyl)phenyl]-3-oxo-4-azaandrost-1-ene-17-carboxamide]
